Test results from publication PMC9570109, “Improved Trimethylangelicin Analogs for Cystic Fibrosis: Design, Synthesis and Preliminary Screening” (International Journal of Molecular Sciences, 2022).

Tests used:
[1] = test system: Salmonella typhimurium TA100; assay: Ames mutagenicity assay, plate incorporation, TA100; assay type: cell-based
Method: (§1) The mutagenicity assay was performed for the test compounds following the plate incorporation method with the histidine-requiring Salmonella typhimurium mutant TA97A, TA98, TA100, and TA1535 strains purchased by Molecular Toxicology Inc. (Boone, NC, USA; moltox.com). All strains (100 µL per plate of fresh overnight cultures) were checked with and without the addition of 0.5 mL of a 5% S9 exogenous metabolic activator (S9 mix). The lyophilized post-mitochondrial supernatant S9 mix (Aroclor 1254-induced, Sprague–Dawley male rat liver in 0.154 M KCl solution), commonly used for the activation of pro-mutagens in mutagenic metabolites (Molecular Toxicology, Inc., Boone, NC, USA), was stored at −80 °C before use. The concentration tested for all the samples were 5, 10, 20, 50, and 100 µL/plate from a stock solution of 500 nM. A fully grown culture of the appropriate tester strain (0.1 mL) was added to 2 mL molten top agar (0.6% agar, 0.6% NaCl, 0.5 mM L-histidine/biotin solution) at 46 °C, together with 0.1 mL of each sample solution at different concentrations, and 0.5 mL S9 mix for assays with metabolic activation. The ingredients were thoroughly mixed and poured onto minimal glucose agar plates (1.5% agar in 2% Vogel–Bonner medium E with 5% glucose solution). DMSO was used as negative a control (100 µL/plate). Positive controls were prepared as follows: 2-aminoanthracene (2 µg/plate) and 2-nitrofluorene (2 µg/plate) for TA 97A, TA98 and TA1535 with and without metabolic activator (S9 mix), respectively; 2-aminoanthracene (2 µg/plate) and sodium azide (2 µg/plate) for TA100, with and without metabolic activator (S9 mix), respectively. The plates were incubated at 37 °C for 72 h and then his+ revertants were checked and counted using a Colony Counter 560 Suntex (Antibioticos, Italy). A sample was considered mutagenic when the observed number of colonies was at least twofold over the spontaneous level of revertants. All determinations were made in triplicate. Statistical analysis: relative standard deviations were calculated using the statistical software STATISTICA 6.0 (StatSoft, Italia srl, Vigonza, Italy). […]
(§2) Salmonella typhimurium TA97A Salmonella typhimurium TA98 Salmonella typhimurium TA100 Salmonella typhimurium 1535 […]
(§3) average SD t/c average SD t/c average SD t/c average SD t/c average SD t/c average SD t/c average SD t/c average SD t/c […]
(§4) *Significant values according to Ames computation (Maron & Ames, 1983); DMSO, C+: negative and positive controls respectively; SD: Standard Deviation; t/c: number of revertant colonies in treated plates/number of revertant colonies in […]

[2] = test system: Salmonella typhimurium TA98; assay: Ames mutagenicity assay, plate incorporation, TA98; assay type: cell-based
Method: as §1, §2, §3, §4

[3] = test system: Salmonella typhimurium 1535; assay: Ames mutagenicity assay, plate incorporation, TA1535; assay type: cell-based
Method: as §1, §2, §3, §4

[4] = test system: salmon testes DNA; assay: Photoadduct formation with DNA under UVA irradiation (TLC analysis); details: 15 J/cm2 UVA
Method: The total energy that struck the sample was monitored by means of a radiometer (Variocontrol, Waldmann, Villingen-Schwenningen, Germany), equipped with a Variocontrol UV Sensor (Waldmann). The radiant power emitted by the UVA lamp was about […]. The samples were maintained at room temperature during irradiation.
The test compounds were dissolved in ethanol (2 mg/mL) and salmon testes DNA (Sigma-Aldrich) was dissolved in 10 mM NaCl and 1 mM EDTA solution (1.5 × 10^−3 M). Each test solution (250 μL) was added dropwise to the DNA solution (5 mL). The mixture was irradiated with 15 J/cm2 UVA light in a glass dish for 1 h. After irradiation, the DNA was precipitated with 1 M NaCl and two volumes of cold ethanol; the precipitated DNA was collected, washed with 80% ethanol, dried, and then dissolved in water. To obtain hydrolysis, the final solution was acidified with 1 M HCl, heated at 100 °C for 1 h, neutralized with NaOH and extracted three times with chloroform. Then, all of the organic layers were collected, dried under a high vacuum, and dissolved in ethanol. The hydrolyzed mixtures were separated by thin layer chromatography (TLC; F254 plates, 0.25 mm, Merck, Darmstadt, Germany) eluting with EtOAc/EtOH (9:1). The plates were analyzed with a Mineral Light Lamp VL-4LC VILBERT-LOURMAT (Vilber, Marne-la-Vallée, France).

[5] = TA100, +S9, 5 µL/plate of 500 nM stock
[6] = TA100, +S9, 10 µL/plate of 500 nM stock
[7] = TA100, +S9, 20 µL/plate of 500 nM stock
[8] = TA100, +S9, 50 µL/plate of 500 nM stock
[9] = TA100, +S9, 100 µL/plate of 500 nM stock
[10] = TA100, -S9, 5 µL/plate of 500 nM stock
[11] = TA100, -S9, 10 µL/plate of 500 nM stock
[12] = TA100, -S9, 20 µL/plate of 500 nM stock
[13] = TA100, -S9, 50 µL/plate of 500 nM stock
[14] = TA100, -S9, 100 µL/plate of 500 nM stock
[15] = TA98, +S9, 5 µL/plate of 500 nM stock
[16] = TA98, +S9, 10 µL/plate of 500 nM stock
[17] = TA98, +S9, 20 µL/plate of 500 nM stock
[18] = TA98, +S9, 50 µL/plate of 500 nM stock
[19] = TA98, +S9, 100 µL/plate of 500 nM stock
[20] = TA98, -S9, 5 µL/plate of 500 nM stock
[21] = TA98, -S9, 10 µL/plate of 500 nM stock
[22] = TA98, -S9, 20 µL/plate of 500 nM stock
[23] = TA98, -S9, 50 µL/plate of 500 nM stock
[24] = TA98, -S9, 100 µL/plate of 500 nM stock
[25] = 1535, +S9, 5 µL/plate of 500 nM stock
[26] = 1535, +S9, 10 µL/plate of 500 nM stock
[27] = 1535, +S9, 20 µL/plate of 500 nM stock
[28] = 1535, +S9, 50 µL/plate of 500 nM stock
[29] = 1535, +S9, 100 µL/plate of 500 nM stock
[30] = 1535, -S9, 5 µL/plate of 500 nM stock
[31] = 1535, -S9, 10 µL/plate of 500 nM stock
[32] = 1535, -S9, 20 µL/plate of 500 nM stock
[33] = 1535, -S9, 50 µL/plate of 500 nM stock
[34] = 1535, -S9, 100 µL/plate of 500 nM stock

## Cc1cc2c(-c3ccccc3)cc(=O)oc2c2c(C)coc12 [4-PhDMA]
[1]; [5]
  revertant colonies, average: 159.5
  t/c (revertant colonies treated/untreated plates): 0.9
[1]; [6]
  revertant colonies, average: 193.0
  t/c (revertant colonies treated/untreated plates): 1.1
[1]; [7]
  revertant colonies, average: 193.5
  t/c (revertant colonies treated/untreated plates): 1.1
[1]; [8]
  revertant colonies, average: 187.5
  t/c (revertant colonies treated/untreated plates): 1.1
[1]; [9]
  revertant colonies, average: 197.0
  t/c (revertant colonies treated/untreated plates): 1.2
[1]; [10]
  revertant colonies, average: 208.5
  t/c (revertant colonies treated/untreated plates): 1.1
[1]; [11]
  revertant colonies, average: 198.5
  t/c (revertant colonies treated/untreated plates): 1.0
[1]; [12]
  revertant colonies, average: 207.0
  t/c (revertant colonies treated/untreated plates): 1.1
[1]; [13]
  revertant colonies, average: 184.5
  t/c (revertant colonies treated/untreated plates): 0.9
[1]; [14]
  revertant colonies, average: 179.0
  t/c (revertant colonies treated/untreated plates): 0.9
[2]; [15]
  revertant colonies, average: 47.0
  t/c (revertant colonies treated/untreated plates): 1.0
[2]; [16]
  revertant colonies, average: 49.0
  t/c (revertant colonies treated/untreated plates): 1.1
[2]; [17]
  revertant colonies, average: 52.5
  t/c (revertant colonies treated/untreated plates): 1.1
[2]; [18]
  revertant colonies, average: 47.5
  t/c (revertant colonies treated/untreated plates): 1.0
[2]; [19]
  revertant colonies, average: 47.5
  t/c (revertant colonies treated/untreated plates): 1.0
[2]; [20]
  revertant colonies, average: 39.0
  t/c (revertant colonies treated/untreated plates): 1.0
[2]; [21]
  revertant colonies, average: 42.0
  t/c (revertant colonies treated/untreated plates): 1.1
[2]; [22]
  revertant colonies, average: 38.5
  t/c (revertant colonies treated/untreated plates): 1.0
[2]; [23]
  revertant colonies, average: 41.0
  t/c (revertant colonies treated/untreated plates): 1.1
[2]; [24]
  revertant colonies, average: 41.0
  t/c (revertant colonies treated/untreated plates): 1.1
[3]; [25]
  revertant colonies, average: 10.5
  t/c (revertant colonies treated/untreated plates): 1.0
[3]; [26]
  revertant colonies, average: 13.5
  t/c (revertant colonies treated/untreated plates): 1.3
[3]; [27]
  revertant colonies, average: 11.0
  t/c (revertant colonies treated/untreated plates): 1.0
[3]; [28]
  revertant colonies, average: 10.5
  t/c (revertant colonies treated/untreated plates): 1.0
[3]; [29]
  revertant colonies, average: 11.0
  t/c (revertant colonies treated/untreated plates): 1.0
[3]; [30]
  revertant colonies, average: 15.0
  t/c (revertant colonies treated/untreated plates): 1.4
[3]; [31]
  revertant colonies, average: 13.0
  t/c (revertant colonies treated/untreated plates): 1.2
[3]; [32]
  revertant colonies, average: 5.5
  t/c (revertant colonies treated/untreated plates): 0.5
[3]; [33]
  revertant colonies, average: 10.0
  t/c (revertant colonies treated/untreated plates): 0.9
[3]; [34]
  revertant colonies, average: 7.0
  t/c (revertant colonies treated/untreated plates): 0.6
[4]
  photoadduct formation with DNA upon UVA irradiation: only the unchanged bands

## Cc1cc(=O)oc2c1cc(-c1ccccc1)c1occ(C)c12 [6-PhDMA]
[1]; [5]
  revertant colonies, average: 182.0
  t/c (revertant colonies treated/untreated plates): 1.1
[1]; [6]
  revertant colonies, average: 178.5
  t/c (revertant colonies treated/untreated plates): 1.0
[1]; [7]
  revertant colonies, average: 184.5
  t/c (revertant colonies treated/untreated plates): 1.1
[1]; [8]
  revertant colonies, average: 178.0
  t/c (revertant colonies treated/untreated plates): 1.0
[1]; [9]
  revertant colonies, average: 203.0
  t/c (revertant colonies treated/untreated plates): 1.2
[1]; [10]
  revertant colonies, average: 186.5
  t/c (revertant colonies treated/untreated plates): 1.0
[1]; [11]
  revertant colonies, average: 220.0
  t/c (revertant colonies treated/untreated plates): 1.1
[1]; [12]
  revertant colonies, average: 172.0
  t/c (revertant colonies treated/untreated plates): 0.9
[1]; [13]
  revertant colonies, average: 202.5
  t/c (revertant colonies treated/untreated plates): 1.0
[1]; [14]
  revertant colonies, average: 185.5
  t/c (revertant colonies treated/untreated plates): 0.9
[2]; [15]
  revertant colonies, average: 45.5
  t/c (revertant colonies treated/untreated plates): 1.0
[2]; [16]
  revertant colonies, average: 49.5
  t/c (revertant colonies treated/untreated plates): 1.1
[2]; [17]
  revertant colonies, average: 46.5
  t/c (revertant colonies treated/untreated plates): 1.0
[2]; [18]
  revertant colonies, average: 46.0
  t/c (revertant colonies treated/untreated plates): 1.0
[2]; [19]
  revertant colonies, average: 45.0
  t/c (revertant colonies treated/untreated plates): 1.0
[2]; [20]
  revertant colonies, average: 37.5
  t/c (revertant colonies treated/untreated plates): 1.0
[2]; [21]
  revertant colonies, average: 41.0
  t/c (revertant colonies treated/untreated plates): 1.1
[2]; [22]
  revertant colonies, average: 38.0
  t/c (revertant colonies treated/untreated plates): 1.0
[2]; [23]
  revertant colonies, average: 43.5
  t/c (revertant colonies treated/untreated plates): 1.1
[2]; [24]
  revertant colonies, average: 40.0
  t/c (revertant colonies treated/untreated plates): 1.0
[3]; [25]
  revertant colonies, average: 13.5
  t/c (revertant colonies treated/untreated plates): 1.3
[3]; [26]
  revertant colonies, average: 12.5
  t/c (revertant colonies treated/untreated plates): 1.2
[3]; [27]
  revertant colonies, average: 10.0
  t/c (revertant colonies treated/untreated plates): 0.9
[3]; [28]
  revertant colonies, average: 10.0
  t/c (revertant colonies treated/untreated plates): 0.9
[3]; [29]
  revertant colonies, average: 14.0
  t/c (revertant colonies treated/untreated plates): 1.3
[3]; [30]
  revertant colonies, average: 13.5
  t/c (revertant colonies treated/untreated plates): 1.2
[3]; [31]
  revertant colonies, average: 14.5
  t/c (revertant colonies treated/untreated plates): 1.3
[3]; [32]
  revertant colonies, average: 7.5
  t/c (revertant colonies treated/untreated plates): 0.7
[3]; [33]
  revertant colonies, average: 8.0
  t/c (revertant colonies treated/untreated plates): 0.7
[3]; [34]
  revertant colonies, average: 9.0
  t/c (revertant colonies treated/untreated plates): 0.8
[4]
  photoadduct formation with DNA upon UVA irradiation: only the unchanged bands
